Results: publication PMC10786919, “Design-rules for stapled peptides with in vivo activity and their application to Mdm2/X antagonists” (Nature Communications, 2024)
Values after ≈ are worked out from the molar mass of the structure shown. Positions of bridges follow the written chain, without caps; N, C: chain ends. Non-standard residues stand in square brackets, D forms with d. Residues, ends and D or L forms follow the SMILES beside them. Lys(N3) = [N-]=[N+]=NCCCC[C@H](N)C(=O)O; R8 = C=CCCCCCC[C@@](C)(N)C(=O)O; Cba = N[C@@H](CC1CCC1)C(=O)O; S5 = C=CCCC[C@](C)(N)C(=O)O; βAla = NCCC(=O)O

Experiments:
[1] = system: CellSensor p53RE-bla HCT-116 Cell Line; details: 72 h
Experimental: (§1) The medium for CellSensor™ p53RE-bla HCT-116 cells was McCoy’s 5 A Medium (GIBCO16600-002) supplied with 10% FBS (Hyclone, SH30406.05), 100 U/100ug/ml of Pen/Strep (SolarBio, P1400) and 5 μg/ml of blasticidin (GIBCO, A11139). The medium for Ca Ski cells was RPMI1640 (Hyclone, SH3080901B) supplied with 10% FBS and 100 U/100ug/ml of Pen/Strep. All cells were kept in humidified incubators with 5% CO2 at 37 °C. Culture media was changed after one day of subculturing and cells were passed again when there was 70–80% confluence. One day before the assay, the cells were trypsinized, collected, counted and viability was determined. […] The plates were kept in humidified incubators with 5% CO2 at 37 °C overnight. Compounds were prepared as a 10 point, 3x serial dilution in 100% DMSO, starting from a top concentration of 10 mM. […] At the end of the incubation the assay plate was equilibrated at room temperature for approximately 30 minutes prior to the addition of 25 uL of CellTiter-Glo® 2.0 Reagent. The assay plate was mixed for 2 minutes on an orbital shaker to induce cell lysis. Next, the plate was incubated at room temperature for 10 minutes to stabilize the luminescent signal prior to recording the luminescence on a plate reader.

Ca Ski cell line = details: 72 h
Experimental: as §1

[2] = Experimental LogD (partition coefficient); details: for logD: not stated, Partition Coeff LogD
[3] = Solubility assay (kinetic solubility, PBS pH 7); format: physicochemical; details: pH 7, PBS; for solubility kinetic: pH 7, aqueous buffer, kinetic from dmso stock, read-out: Solubility
In short: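 Quantitation uses an external standard at 100 µM, prepared from 10 mM stock in acetonitrile:methanol:DMSO (10:80:10). Solubility (µM) = (peak area of sample ÷ peak area of standard) × standard concentration.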

[4] = Lactate dehydrogenase (LDH) release assay; format: cell-based
In short: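 HCT116 cells stably carrying a p53-responsive β-lactamase reporter were seeded at 8000 cells per well with a final DMSO level of 0.5%. Membrane integrity was assessed by lactate dehydrogenase release using a homogeneous fluorometric kit. Values are geometric means of at least three biological replicates.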

in vitro = details: Nanoclick permeability assay EC50
In short: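 Azido-peptide permeability was read as loss of NanoBRET signal (donor 450 nm, acceptor 610 nm) after adding NanoBret618-azide at 10 μM final.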

## CC(=O)N[C@@H](CCCCN=[N+]=[N-])C(=O)NCCC(=O)N[C@@H](Cc1c[nH]cn1)C(=O)N[C@H](C(=O)N[C@@H](Cc1ccccc1)C(=O)N[C@]1(C)CCCCCCC=CCCC[C@@](C)(C(=O)N[C@@H](CO)C(=O)N[C@@H](C)C(=O)N[C@@H](C)C(N)=O)NC(=O)[C@H](CC2CCC2)NC(=O)[C@H](CCC(N)=O)NC(=O)[C@H](C)NC(=O)[C@H](Cc2c[nH]c3ccccc23)NC(=O)[C@H](Cc2ccc(O)cc2)NC(=O)[C@H](CCC(=O)O)NC1=O)[C@@H](C)O [MP-173, AZIDE-ATSP-7041 (L1H)] (Ac-[Lys(N3)][βAla]HTF[R8]EYWAQ[Cba][S5]SAA-NH2; staple 6-13)
[1]
  EC50: 5.14 µM
Ca Ski cell line
  EC50: 35.3 µM
[2]
  logD: 2.73
physchem
  EPSA: 232 A^2
[3]
  solubility kinetic: 5 µM (≈ 9.97 µg/mL)
[4]; LDH: Cytotoxicity assay EC50
  EC50: > 50 µM
In vitro
  cell entry EC50: 0.0406 µM

## CC(=O)N[C@@H](CCCCN=[N+]=[N-])C(=O)NCCC(=O)N[C@@H](CCC(=O)O)C(=O)N[C@H](C(=O)N[C@@H](Cc1ccccc1)C(=O)N[C@]1(C)CCCCCCC=CCCC[C@@](C)(C(=O)N[C@@H](CO)C(=O)N[C@@H](C)C(=O)N[C@@H](C)C(N)=O)NC(=O)[C@H](CC2CCC2)NC(=O)[C@H](CCC(N)=O)NC(=O)[C@H](C)NC(=O)[C@H](Cc2c[nH]c3ccccc23)NC(=O)[C@H](Cc2ccc(O)cc2)NC(=O)[C@H](CCC(=O)O)NC1=O)[C@@H](C)O [MP-178]
[1]
  EC50: 2.74 µM
Ca Ski cell line
  EC50: > 49.8 µM
[2]
  logD: 2.47
physchem
  EPSA: 254 A^2
[3]
  solubility kinetic: 169 µM (≈ 336 µg/mL)
[4]; LDH: Cytotoxicity assay EC50
  EC50: > 50 µM
In vitro
  cell entry EC50: 0.292 µM

## CC(=O)N[C@@H](CCCCN=[N+]=[N-])C(=O)NCCC(=O)N[C@@H](CC(C)C)C(=O)N[C@@H](CCC(=O)O)C(=O)N[C@@H](Cc1ccccc1)C(=O)N[C@]1(C)CCCCCCC=CCCC[C@@](C)(C(=O)N[C@@H](CO)C(=O)N[C@@H](C)C(=O)N[C@@H](C)C(N)=O)NC(=O)[C@H](CC2CCC2)NC(=O)[C@H](CCC(N)=O)NC(=O)[C@H](C)NC(=O)[C@H](Cc2c[nH]c3ccccc23)NC(=O)[C@H](Cc2ccc(O)cc2)NC(=O)[C@H](CCC(=O)O)NC1=O [MP-179]
[1]
  EC50: 13.6 µM
Ca Ski cell line
  EC50: > 49.8 µM
[2]
  logD: 2.5
physchem
  EPSA: 243 A^2
[3]
  solubility kinetic: 102 µM (≈ 205 µg/mL)
[4]; LDH: Cytotoxicity assay EC50
  EC50: > 50 µM
In vitro
  cell entry EC50: 0.173 µM

## CC(=O)N[C@@H](CCCCN=[N+]=[N-])C(=O)NCCC(=O)N[C@@H](CC(C)C)C(=O)N[C@H](C(=O)N[C@@H](Cc1ccccc1)C(=O)N[C@]1(C)CCCCCCC=CCCC[C@@](C)(C(=O)N[C@@H](CO)C(=O)N[C@@H](C)C(=O)N[C@@H](C)C(N)=O)NC(=O)[C@H](CC2CCC2)NC(=O)[C@H](CCC(=O)O)NC(=O)[C@H](C)NC(=O)[C@H](Cc2c[nH]c3ccccc23)NC(=O)[C@H](Cc2ccc(O)cc2)NC(=O)[C@H](CCC(=O)O)NC1=O)[C@@H](C)O [MP-181]
[1]
  EC50: 4.64 µM
Ca Ski cell line
  EC50: > 49.8 µM
[2]
  logD: 2.74
physchem
  EPSA: 249 A^2
[3]
  solubility kinetic: 179 µM (≈ 353 µg/mL)
[4]; LDH: Cytotoxicity assay EC50
  EC50: > 50 µM
In vitro
  cell entry EC50: 0.304 µM

## CC(=O)N[C@@H](CCCCN=[N+]=[N-])C(=O)NCCC(=O)N[C@@H](CC(C)C)C(=O)N[C@H](C(=O)N[C@@H](Cc1ccccc1)C(=O)N[C@]1(C)CCCCCCC=CCCC[C@@](C)(C(=O)N[C@@H](CCC(=O)O)C(=O)N[C@@H](C)C(=O)N[C@@H](C)C(N)=O)NC(=O)[C@H](CC2CCC2)NC(=O)[C@H](CCC(N)=O)NC(=O)[C@H](C)NC(=O)[C@H](Cc2c[nH]c3ccccc23)NC(=O)[C@H](Cc2ccc(O)cc2)NC(=O)[C@H](CCC(=O)O)NC1=O)[C@@H](C)O [MP-182]
[1]
  EC50: 1.31 µM
Ca Ski cell line
  EC50: > 49.8 µM
[2]
  logD: 2.5
physchem
  EPSA: 251 A^2
[3]
  solubility kinetic: 163 µM (≈ 328 µg/mL)
[4]; LDH: Cytotoxicity assay EC50
  EC50: > 50 µM
In vitro
  cell entry EC50: 0.223 µM

## CC(=O)N[C@@H](CCCCN=[N+]=[N-])C(=O)NCCC(=O)N[C@@H](Cc1c[nH]c2ccccc12)C(=O)N[C@H](C(=O)N[C@@H](Cc1ccccc1)C(=O)N[C@]1(C)CCCCCCC=CCCC[C@@](C)(C(=O)N[C@@H](CO)C(=O)N[C@@H](C)C(=O)N[C@@H](C)C(N)=O)NC(=O)[C@H](CC2CCC2)NC(=O)[C@H](CCC(N)=O)NC(=O)[C@H](C)NC(=O)[C@H](Cc2c[nH]c3ccccc23)NC(=O)[C@H](Cc2ccc(O)cc2)NC(=O)[C@H](CCC(=O)O)NC1=O)[C@@H](C)O [MP-183] (Ac-[Lys(N3)][βAla]WTF[R8]EYWAQ[Cba][S5]SAA-NH2; staple 6-13)
[1]
  EC50: 5.74 µM
Ca Ski cell line
  EC50: 38.5 µM
[2]
  logD: 3.04
physchem
  EPSA: 247 A^2
[3]
  solubility kinetic: 19 µM (≈ 38.8 µg/mL)
[4]; LDH: Cytotoxicity assay EC50
  EC50: > 50 µM
In vitro
  cell entry EC50: 0.229 µM

## CC(=O)N[C@@H](CCCCN=[N+]=[N-])C(=O)NCCC(=O)N[C@@H](CC(C)C)C(=O)N[C@H](C(=O)N[C@@H](Cc1ccccc1)C(=O)N[C@]1(C)CCCCCCC=CCCC[C@@](C)(C(=O)N[C@@H](CO)C(=O)N[C@@H](C)C(=O)N[C@@H](C)C(N)=O)NC(=O)[C@H](CC2CCC2)NC(=O)[C@H](CCC(N)=O)NC(=O)[C@H](Cc2c[nH]c3ccccc23)NC(=O)[C@H](Cc2c[nH]c3ccccc23)NC(=O)[C@H](Cc2ccc(O)cc2)NC(=O)[C@H](CCC(=O)O)NC1=O)[C@@H](C)O [MP-186] (Ac-[Lys(N3)][βAla]LTF[R8]EYWWQ[Cba][S5]SAA-NH2; staple 6-13)
[1]
  EC50: 5.8 µM
Ca Ski cell line
  EC50: 21.5 µM
[2]
  logD: 3.26
physchem
  EPSA: 238 A^2
[4]; LDH: Cytotoxicity assay EC50
  EC50: > 50 µM
In vitro
  cell entry EC50: 0.194 µM

## CC(=O)N[C@@H](CCCCN=[N+]=[N-])C(=O)NCCC(=O)N[C@@H](CC(C)C)C(=O)N[C@H](C(=O)N[C@@H](Cc1ccccc1)C(=O)N[C@]1(C)CCCCCCC=CCCC[C@@](C)(C(=O)N[C@@H](CO)C(=O)N[C@@H](C)C(=O)N[C@@H](C)C(N)=O)NC(=O)[C@H](CC2CCC2)NC(=O)[C@H](Cc2c[nH]c3ccccc23)NC(=O)[C@H](C)NC(=O)[C@H](Cc2c[nH]c3ccccc23)NC(=O)[C@H](Cc2ccc(O)cc2)NC(=O)[C@H](CCC(=O)O)NC1=O)[C@@H](C)O [MP-187] (Ac-[Lys(N3)][βAla]LTF[R8]EYWAW[Cba][S5]SAA-NH2; staple 6-13)
[1]
  EC50: 7.27 µM
Ca Ski cell line
  EC50: > 49.8 µM
[2]
  logD: 3.14
physchem
  EPSA: 242 A^2
[3]
  solubility kinetic: 3.5 µM (≈ 7.1 µg/mL)
[4]; LDH: Cytotoxicity assay EC50
  EC50: > 50 µM
In vitro
  cell entry EC50: 0.247 µM

## CC(=O)N[C@@H](CCCCN=[N+]=[N-])C(=O)NCCC(=O)N[C@@H](CC(C)C)C(=O)N[C@H](C(=O)N[C@@H](Cc1ccccc1)C(=O)N[C@]1(C)CCCCCCC=CCCC[C@@](C)(C(=O)N[C@@H](CO)C(=O)N[C@@H](C)C(=O)N[C@@H](C)C(N)=O)NC(=O)[C@H](CC2CCC2)NC(=O)[C@H](CCCNC(=N)N)NC(=O)[C@H](C)NC(=O)[C@H](Cc2c[nH]c3ccccc23)NC(=O)[C@H](Cc2ccc(O)cc2)NC(=O)[C@H](CCC(=O)O)NC1=O)[C@@H](C)O [MP-556] (Ac-[Lys(N3)][βAla]LTF[R8]EYWAR[Cba][S5]SAA-NH2; staple 6-13)
[1]
  EC50: 3.14 µM
Ca Ski cell line
  EC50: > 49.8 µM
[2]
  logD: 3.15
physchem
  EPSA: 221 A^2
[4]; LDH: Cytotoxicity assay EC50
  EC50: > 50 µM
In vitro
  cell entry EC50: 0.149 µM

## CC(=O)N[C@@H](CCCCN=[N+]=[N-])C(=O)NCCC(=O)N[C@@H](CC(C)C)C(=O)N[C@H](C(=O)N[C@@H](Cc1ccccc1)C(=O)N[C@]1(C)CCCCCCC=CCCC[C@@](C)(C(=O)N[C@@H](CO)C(=O)N[C@@H](CCC(=O)O)C(=O)N[C@@H](C)C(N)=O)NC(=O)[C@H](CC2CCC2)NC(=O)[C@H](CCC(N)=O)NC(=O)[C@H](C)NC(=O)[C@H](Cc2c[nH]c3ccccc23)NC(=O)[C@H](Cc2ccc(O)cc2)NC(=O)[C@H](CCC(=O)O)NC1=O)[C@@H](C)O [MP-898]
[1]
  EC50: 7.5 µM
Ca Ski cell line
  EC50: > 49.8 µM
[2]
  logD: 2.4
[3]
  solubility kinetic: 145 µM (≈ 294 µg/mL)
[4]; LDH: Cytotoxicity assay: EC50
  EC50: > 50.7 µM
In vitro
  cell entry EC50: 0.808 µM

## CC(=O)N[C@@H](CCCCN=[N+]=[N-])C(=O)NCCC(=O)N[C@@H](CC(C)C)C(=O)N[C@H](C(=O)N[C@@H](Cc1ccccc1)C(=O)N[C@]1(C)CCCCCCC=CCCC[C@@](C)(C(=O)N[C@@H](C)C(=O)N[C@@H](CC(C)C)C(=O)N[C@@H](C)C(=O)N[C@@H](C)C(=O)N[C@@H](C)C(=O)N[C@H](C)C(N)=O)NC(=O)[C@H](CC2CCC2)NC(=O)[C@H](CCC(N)=O)NC(=O)[C@H](C)NC(=O)[C@H](Cc2c[nH]c3ccccc23)NC(=O)[C@H](Cc2ccc(O)cc2)NC(=O)[C@H](CCC(=O)O)NC1=O)[C@@H](C)O [MP-968] (Ac-[Lys(N3)][βAla]LTF[R8]EYWAQ[Cba][S5]ALAAA[dA]-NH2; staple 6-13)
[1]
  EC50: 1.41 µM
Ca Ski cell line
  EC50: 43.1 µM
[2]
  Partition Coeff LogD: Poorly Behaved
[3]
  Solubility: Poorly Behaved
[4]; LDH: Cytotoxicity assay EC50
  EC50: > 50.7 µM
In vitro
  cell entry EC50: 4.2 µM
